Reference: the supplement of paper PMC11208160
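Also: IS621 bridge recombinase in Escherichia coli cells against a fixed T5 target plasmid.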

Assay: recombinant UMI read abundance after kanamycin selection (control-corrected) (log10(CPM+1)); higher = more efficient recombination; extreme values may be limits of the assay; sequences stand for … in AGTGCAGAGAAAATCGGCCAGTTTTCTCTGCCTGCAGTCCGCATGCCGTGGGACCCCTTGGGTTCTAACCTGTTGCCTAGATTTATGCAGCGGACTGCCTTTCTCCCAAAGTGATAAACCGG…AGGTTGGTTTCACT; site = the 11-nt donor
Outline: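 Two replicates each of selected and unselected plating were used in this pooled Escherichia coli screen of donor and donor-binding-loop pairs for the IS621 bridge recombinase. Selection was with IPTG (0.07 mM) and kanamycin. Counts of recombinant UMIs, amplified across the donor–target junction, were converted to CPM, averaged, scaled by control-derived factors and reported as log10(CPM+1).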
For “CGATCATCATGGACCGGTTTTCCCGGTAATCCGTATTTGCT (site CGACCATCTCG)”, the “recombinant UMI read abundance (log10)” value was 0.019.
In the case of “CGATCATCATGGACCGGTTTTCCCGGTAATCCGTATTTGCT (site CGACCCTCTAG)”, the “recombinant UMI read abundance (log10)” value is reported as 0.00441.
For “CGATCATCATGGACCGGTTTTCCCGGTAATCCGTATTTGCT (site CGAGCAGCTAG)”, the “recombinant UMI read abundance (log10)” value was 0.
In the case of “CGATCATCATGGACCGGTTTTCCCGGTAATCCGTATTTGCT (site CGAGCATCTAA)”, the “recombinant UMI read abundance (log10)” value is reported as 0.0187.
In the case of “CGATCATCATGGACCGGTTTTCCCGGTAATCCGTATTTGCT (site CGAGCATCTAG)”, the “recombinant UMI read abundance (log10)” value is reported as 0.
For “CGATCATCATGGACCGGTTTTCCCGGTAATCCGTATTTGCT (site CGAGCATCTTG)”, the “recombinant UMI read abundance (log10)” value was 0.
With “CGATCATCATGGACCGGTTTTCCCGGTAATCCGTATTTGCT (site CGAGCTTCTAG)” the “recombinant UMI read abundance (log10)” value was 0.
In the case of “CGATCATCATGGACCGGTTTTCCCGGTAATCCGTATTTGCT (site CGAGTATCTAG)”, the “recombinant UMI read abundance (log10)” value is reported as 0.
In the case of “CGATCATCATGGACCGGTTTTCCCGGTAATCCGTATTTGCT (site CGATAAACTAG)”, the “recombinant UMI read abundance (log10)” value is reported as 0.0203.
With “CGATCATCATGGACCGGTTTTCCCGGTAATCCGTATTTGCT (site CGATAATCTAC)” the “recombinant UMI read abundance (log10)” value was 0.
For “CGATCATCATGGACCGGTTTTCCCGGTAATCCGTATTTGCT (site CGATAATCTAG)”, the “recombinant UMI read abundance (log10)” value was 0.558.
With “CGATCATCATGGACCGGTTTTCCCGGTAATCCGTATTTGCT (site CGATAATCTCG)” the “recombinant UMI read abundance (log10)” value was 0.
For “CGATCATCATGGACCGGTTTTCCCGGTAATCCGTATTTGCT (site CGATACTCTAG)”, the “recombinant UMI read abundance (log10)” value was 0.
In the case of “CGATCATCATGGACCGGTTTTCCCGGTAATCCGTATTTGCT (site CGATCAACTAC)”, the “recombinant UMI read abundance (log10)” value is reported as 0.0107.
For “CGATCATCATGGACCGGTTTTCCCGGTAATCCGTATTTGCT (site CGATCAACTAG)”, the “recombinant UMI read abundance (log10)” value was 0.
In the case of “CGATCATCATGGACCGGTTTTCCCGGTAATCCGTATTTGCT (site CGATCAACTCG)”, the “recombinant UMI read abundance (log10)” value is reported as 0.
In the case of “CGATCATCATGGACCGGTTTTCCCGGTAATCCGTATTTGCT (site CGATCACCTAG)”, the “recombinant UMI read abundance (log10)” value is reported as 0.
For “CGATCATCATGGACCGGTTTTCCCGGTAATCCGTATTTGCT (site CGATCACCTAT)”, the “recombinant UMI read abundance (log10)” value was 0.0275.
With “CGATCATCATGGACCGGTTTTCCCGGTAATCCGTATTTGCT (site CGATCACCTGG)” the “recombinant UMI read abundance (log10)” value was 0.009.
In the case of “CGATCATCATGGACCGGTTTTCCCGGTAATCCGTATTTGCT (site CGATCAGCTAA)”, the “recombinant UMI read abundance (log10)” value is reported as 0.00801.
For “CGATCATCATGGACCGGTTTTCCCGGTAATCCGTATTTGCT (site CGATCAGCTAG)”, the “recombinant UMI read abundance (log10)” value was 0.
For “CGATCATCATGGACCGGTTTTCCCGGTAATCCGTATTTGCT (site CGATCAGCTTG)”, the “recombinant UMI read abundance (log10)” value was 0.
For “CGATCATCATGGACCGGTTTTCCCGGTAATCCGTATTTGCT (site CGATCATCTAA)”, the “recombinant UMI read abundance (log10)” value was 0.
With “CGATCATCATGGACCGGTTTTCCCGGTAATCCGTATTTGCT (site CGATCATCTAC)” the “recombinant UMI read abundance (log10)” value was 0.
In the case of “CGATCATCATGGACCGGTTTTCCCGGTAATCCGTATTTGCT (site CGATCATCTAG)”, the “recombinant UMI read abundance (log10)” value is reported as 1.82.
With “CGATCATCATGGACCGGTTTTCCCGGTAATCCGTATTTGCT (site CGATCATCTAT)” the “recombinant UMI read abundance (log10)” value was 0.
For “CGATCATCATGGACCGGTTTTCCCGGTAATCCGTATTTGCT (site CGATCATCTCC)”, the “recombinant UMI read abundance (log10)” value was 0.00455.
In the case of “CGATCATCATGGACCGGTTTTCCCGGTAATCCGTATTTGCT (site CGATCATCTCG)”, the “recombinant UMI read abundance (log10)” value is reported as 0.
With “CGATCATCATGGACCGGTTTTCCCGGTAATCCGTATTTGCT (site CGATCATCTGG)” the “recombinant UMI read abundance (log10)” value was 0.
With “CGATCATCATGGACCGGTTTTCCCGGTAATCCGTATTTGCT (site CGATCATCTGT)” the “recombinant UMI read abundance (log10)” value was 0.
For “CGATCATCATGGACCGGTTTTCCCGGTAATCCGTATTTGCT (site CGATCATCTTA)”, the “recombinant UMI read abundance (log10)” value was 0.
In the case of “CGATCATCATGGACCGGTTTTCCCGGTAATCCGTATTTGCT (site CGATCATCTTG)”, the “recombinant UMI read abundance (log10)” value is reported as 0.
In the case of “CGATCATCATGGACCGGTTTTCCCGGTAATCCGTATTTGCT (site CGATCCACTAG)”, the “recombinant UMI read abundance (log10)” value is reported as 0.00991.
In the case of “CGATCATCATGGACCGGTTTTCCCGGTAATCCGTATTTGCT (site CGATCCTCTAC)”, the “recombinant UMI read abundance (log10)” value is reported as 0.00344.
With “CGATCATCATGGACCGGTTTTCCCGGTAATCCGTATTTGCT (site CGATCCTCTAG)” the “recombinant UMI read abundance (log10)” value was 0.
For “CGATCATCATGGACCGGTTTTCCCGGTAATCCGTATTTGCT (site CGATCCTCTCG)”, the “recombinant UMI read abundance (log10)” value was 0.00562.
In the case of “CGATCATCATGGACCGGTTTTCCCGGTAATCCGTATTTGCT (site CGATCGCCTAG)”, the “recombinant UMI read abundance (log10)” value is reported as 0.00385.
In the case of “CGATCATCATGGACCGGTTTTCCCGGTAATCCGTATTTGCT (site CGATCGTCTAG)”, the “recombinant UMI read abundance (log10)” value is reported as 0.
With “CGATCATCATGGACCGGTTTTCCCGGTAATCCGTATTTGCT (site CGATCGTCTAT)” the “recombinant UMI read abundance (log10)” value was 0.
In the case of “CGATCATCATGGACCGGTTTTCCCGGTAATCCGTATTTGCT (site CGATCGTCTGG)”, the “recombinant UMI read abundance (log10)” value is reported as 0.
For “CGATCATCATGGACCGGTTTTCCCGGTAATCCGTATTTGCT (site CGATCTGCTAG)”, the “recombinant UMI read abundance (log10)” value was 0.
In the case of “CGATCATCATGGACCGGTTTTCCCGGTAATCCGTATTTGCT (site CGATCTTCTAA)”, the “recombinant UMI read abundance (log10)” value is reported as 0.
With “CGATCATCATGGACCGGTTTTCCCGGTAATCCGTATTTGCT (site CGATCTTCTAG)” the “recombinant UMI read abundance (log10)” value was 0.
For “CGATCATCATGGACCGGTTTTCCCGGTAATCCGTATTTGCT (site CGATCTTCTTG)”, the “recombinant UMI read abundance (log10)” value was 0.
For “CGATCATCATGGACCGGTTTTCCCGGTAATCCGTATTTGCT (site CGATGACCTAG)”, the “recombinant UMI read abundance (log10)” value was 0.
For “CGATCATCATGGACCGGTTTTCCCGGTAATCCGTATTTGCT (site CGATGATCTAG)”, the “recombinant UMI read abundance (log10)” value was 0.
In the case of “CGATCATCATGGACCGGTTTTCCCGGTAATCCGTATTTGCT (site CGATGATCTAT)”, the “recombinant UMI read abundance (log10)” value is reported as 0.00469.
In the case of “CGATCATCATGGACCGGTTTTCCCGGTAATCCGTATTTGCT (site CGATGATCTGG)”, the “recombinant UMI read abundance (log10)” value is reported as 0.
With “CGATCATCATGGACCGGTTTTCCCGGTAATCCGTATTTGCT (site CGATGGTCTAG)” the “recombinant UMI read abundance (log10)” value was 0.
In the case of “CGATCATCATGGACCGGTTTTCCCGGTAATCCGTATTTGCT (site CGATTAGCTAG)”, the “recombinant UMI read abundance (log10)” value is reported as 0.0161.
In the case of “CGATCATCATGGACCGGTTTTCCCGGTAATCCGTATTTGCT (site CGATTATCTAA)”, the “recombinant UMI read abundance (log10)” value is reported as 0.
With “CGATCATCATGGACCGGTTTTCCCGGTAATCCGTATTTGCT (site CGATTATCTAG)” the “recombinant UMI read abundance (log10)” value was 0.
For “CGATCATCATGGACCGGTTTTCCCGGTAATCCGTATTTGCT (site CGATTATCTTG)”, the “recombinant UMI read abundance (log10)” value was 0.
For “CGATCATCATGGACCGGTTTTCCCGGTAATCCGTATTTGCT (site CGATTTTCTAG)”, the “recombinant UMI read abundance (log10)” value was 0.
For “CGATCATCATGGACCGGTTTTCCCGGTAATCCGTATTTGCT (site CGCCCATCTAG)”, the “recombinant UMI read abundance (log10)” value was 0.133.
For “CGATCATCATGGACCGGTTTTCCCGGTAATCCGTATTTGCT (site CGCTAATCTAG)”, the “recombinant UMI read abundance (log10)” value was 0.
For “CGATCATCATGGACCGGTTTTCCCGGTAATCCGTATTTGCT (site CGCTCAACTAG)”, the “recombinant UMI read abundance (log10)” value was 0.
For “CGATCATCATGGACCGGTTTTCCCGGTAATCCGTATTTGCT (site CGCTCATCTAC)”, the “recombinant UMI read abundance (log10)” value was 0.00488.
In the case of “CGATCATCATGGACCGGTTTTCCCGGTAATCCGTATTTGCT (site CGCTCATCTAG)”, the “recombinant UMI read abundance (log10)” value is reported as 0.295.
For “CGATCATCATGGACCGGTTTTCCCGGTAATCCGTATTTGCT (site CGCTCATCTCG)”, the “recombinant UMI read abundance (log10)” value was 0.
In the case of “CGATCATCATGGACCGGTTTTCCCGGTAATCCGTATTTGCT (site CGCTCCTCTAG)”, the “recombinant UMI read abundance (log10)” value is reported as 0.
With “CGATCATCATGGACCGGTTTTCCCGGTAATCCGTATTTGCT (site CGGGCATCTAG)” the “recombinant UMI read abundance (log10)” value was 0.
For “CGATCATCATGGACCGGTTTTCCCGGTAATCCGTATTTGCT (site CGGTCAGCTAG)”, the “recombinant UMI read abundance (log10)” value was 0.0144.
In the case of “CGATCATCATGGACCGGTTTTCCCGGTAATCCGTATTTGCT (site CGGTCATCTAA)”, the “recombinant UMI read abundance (log10)” value is reported as 0.0171.
In the case of “CGATCATCATGGACCGGTTTTCCCGGTAATCCGTATTTGCT (site CGGTCATCTAG)”, the “recombinant UMI read abundance (log10)” value is reported as 0.
For “CGATCATCATGGACCGGTTTTCCCGGTAATCCGTATTTGCT (site CGGTCATCTTG)”, the “recombinant UMI read abundance (log10)” value was 0.00419.
With “CGATCATCATGGACCGGTTTTCCCGGTAATCCGTATTTGCT (site CGGTCTTCTAG)” the “recombinant UMI read abundance (log10)” value was 0.0105.
With “CGATCATCATGGACCGGTTTTCCCGGTAATCCGTATTTGCT (site CGGTTATCTAG)” the “recombinant UMI read abundance (log10)” value was 0.
